Test results taken from ChEMBL document CHEMBL1909046, “DrugMatrix in vitro pharmacology data”.
Where a SMILES comes first, the peptide text is derived from it. Bridges are numbered along the chain shown (N, C = ends). [ ]: non-standard residue; d: D form. The star is where a group is joined. Ileψ(thiazoline)Cys = CC[C@H](C)[C@H](N)C1=N[C@H](C(=O)*)CS1; dOrn = NCCC[C@@H](N)C(=O)O

Experiments:
[1] = target: T1, Alpha-2A adrenergic receptor (Homo sapiens, UniProt P08913); format: cell membranes, Sf9, Membrane; details: for Ki: read-out: Ki; as to all read-outs here: in other assays of this panel Not Active means under 50% inhibition at 10 µM
T1 sequence (P08913 whole entry): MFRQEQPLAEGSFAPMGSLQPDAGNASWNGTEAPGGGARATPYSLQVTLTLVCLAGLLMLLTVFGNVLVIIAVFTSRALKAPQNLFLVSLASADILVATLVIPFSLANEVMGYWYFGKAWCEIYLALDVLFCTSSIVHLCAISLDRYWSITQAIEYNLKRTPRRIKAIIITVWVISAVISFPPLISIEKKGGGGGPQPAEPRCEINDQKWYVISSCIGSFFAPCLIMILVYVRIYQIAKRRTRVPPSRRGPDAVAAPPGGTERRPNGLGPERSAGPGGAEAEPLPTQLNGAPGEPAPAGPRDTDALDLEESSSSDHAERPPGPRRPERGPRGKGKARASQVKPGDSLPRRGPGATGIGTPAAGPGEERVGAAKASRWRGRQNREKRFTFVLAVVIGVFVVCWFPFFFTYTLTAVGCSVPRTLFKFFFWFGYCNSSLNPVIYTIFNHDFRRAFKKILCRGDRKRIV

[2] = target: Aldo-keto reductase family 1 member B1 (Rattus norvegicus, UniProt P07943); format: tissue-based, Lens of camera-type eye;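 also: inhibition of aldose reductase enzyme activity, measured with DL-glyceraldehyde as the substrate; in other assays of this panel Not Active means under 50% inhibition at 10 µM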
[3] = DRUGMATRIX: Glutamate, Kainate radioligand binding (ligand: [3H] Kainic acid); format: cell membranes, Rattus norvegicus, Wistar, Brain, Membrane; details: Not Active = under 50% inhibition at 10 µM
[4] = target: T2, Angiotensin-converting enzyme (Oryctolagus cuniculus, UniProt P12822); test: biochemical; format: tissue-based, Lung;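 also: enzymatic inhibition of angiotensin-converting enzyme measured with FAPGG as the substrate; in other assays of this panel Not Active means under 50% inhibition at 10 µM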
T2 sequence (P12822 whole entry): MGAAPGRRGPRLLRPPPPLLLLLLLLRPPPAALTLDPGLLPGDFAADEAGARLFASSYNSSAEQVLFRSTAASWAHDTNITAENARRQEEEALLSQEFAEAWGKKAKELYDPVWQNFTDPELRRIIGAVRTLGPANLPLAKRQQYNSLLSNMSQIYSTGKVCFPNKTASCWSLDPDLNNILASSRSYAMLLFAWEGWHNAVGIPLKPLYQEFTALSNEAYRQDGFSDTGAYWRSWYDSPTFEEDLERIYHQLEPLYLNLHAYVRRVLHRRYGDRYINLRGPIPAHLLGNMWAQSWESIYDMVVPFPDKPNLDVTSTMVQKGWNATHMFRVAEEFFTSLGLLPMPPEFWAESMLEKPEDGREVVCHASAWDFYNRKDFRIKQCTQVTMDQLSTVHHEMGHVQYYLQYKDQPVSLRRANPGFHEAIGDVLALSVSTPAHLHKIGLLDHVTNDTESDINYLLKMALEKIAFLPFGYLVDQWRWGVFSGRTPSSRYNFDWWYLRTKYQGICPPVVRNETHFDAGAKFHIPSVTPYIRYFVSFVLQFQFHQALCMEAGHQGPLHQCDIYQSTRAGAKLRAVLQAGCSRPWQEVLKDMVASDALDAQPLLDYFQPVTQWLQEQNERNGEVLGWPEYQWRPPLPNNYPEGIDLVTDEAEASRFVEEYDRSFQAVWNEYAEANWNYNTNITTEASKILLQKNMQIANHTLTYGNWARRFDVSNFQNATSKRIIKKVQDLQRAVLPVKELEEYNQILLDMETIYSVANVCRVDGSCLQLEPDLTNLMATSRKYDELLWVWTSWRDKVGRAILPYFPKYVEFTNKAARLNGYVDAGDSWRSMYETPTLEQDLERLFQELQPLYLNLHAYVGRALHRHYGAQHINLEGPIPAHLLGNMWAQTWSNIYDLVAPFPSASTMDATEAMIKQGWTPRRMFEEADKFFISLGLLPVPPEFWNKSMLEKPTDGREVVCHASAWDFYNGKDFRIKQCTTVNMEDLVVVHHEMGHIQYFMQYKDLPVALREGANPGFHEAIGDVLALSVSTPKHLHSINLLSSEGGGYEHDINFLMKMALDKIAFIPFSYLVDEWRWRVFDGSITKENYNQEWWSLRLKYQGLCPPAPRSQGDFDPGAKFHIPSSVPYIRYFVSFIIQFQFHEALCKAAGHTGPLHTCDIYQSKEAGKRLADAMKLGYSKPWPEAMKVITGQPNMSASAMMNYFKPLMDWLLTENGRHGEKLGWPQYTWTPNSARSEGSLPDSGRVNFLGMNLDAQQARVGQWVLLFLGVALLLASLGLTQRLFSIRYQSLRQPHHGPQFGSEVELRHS

Caspase-1 = target: T3, Caspase-1 (Homo sapiens, UniProt P29466); set-up: species or system Escherichia coli;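 also: Caspase-1 enzyme inhibition assay with a peptide substrate; in other assays of this panel Not Active means under 50% inhibition at 10 µM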
T3 sequence (P29466 whole entry): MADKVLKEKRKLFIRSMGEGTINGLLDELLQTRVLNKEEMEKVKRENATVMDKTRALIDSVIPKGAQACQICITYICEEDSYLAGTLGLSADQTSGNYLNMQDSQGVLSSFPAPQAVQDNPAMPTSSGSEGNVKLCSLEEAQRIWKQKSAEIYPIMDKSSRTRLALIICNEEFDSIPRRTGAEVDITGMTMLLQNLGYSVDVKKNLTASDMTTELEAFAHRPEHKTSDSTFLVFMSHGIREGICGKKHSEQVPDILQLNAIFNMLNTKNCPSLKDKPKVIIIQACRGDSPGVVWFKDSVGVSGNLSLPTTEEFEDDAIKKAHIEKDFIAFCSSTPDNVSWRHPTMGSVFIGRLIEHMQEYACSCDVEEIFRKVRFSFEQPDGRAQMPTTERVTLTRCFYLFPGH

[5] = target: Matrix metalloproteinase-9 (Homo sapiens, UniProt P14780); format: cell-based
Sequence of Matrix metalloproteinase-9 (P14780 whole entry): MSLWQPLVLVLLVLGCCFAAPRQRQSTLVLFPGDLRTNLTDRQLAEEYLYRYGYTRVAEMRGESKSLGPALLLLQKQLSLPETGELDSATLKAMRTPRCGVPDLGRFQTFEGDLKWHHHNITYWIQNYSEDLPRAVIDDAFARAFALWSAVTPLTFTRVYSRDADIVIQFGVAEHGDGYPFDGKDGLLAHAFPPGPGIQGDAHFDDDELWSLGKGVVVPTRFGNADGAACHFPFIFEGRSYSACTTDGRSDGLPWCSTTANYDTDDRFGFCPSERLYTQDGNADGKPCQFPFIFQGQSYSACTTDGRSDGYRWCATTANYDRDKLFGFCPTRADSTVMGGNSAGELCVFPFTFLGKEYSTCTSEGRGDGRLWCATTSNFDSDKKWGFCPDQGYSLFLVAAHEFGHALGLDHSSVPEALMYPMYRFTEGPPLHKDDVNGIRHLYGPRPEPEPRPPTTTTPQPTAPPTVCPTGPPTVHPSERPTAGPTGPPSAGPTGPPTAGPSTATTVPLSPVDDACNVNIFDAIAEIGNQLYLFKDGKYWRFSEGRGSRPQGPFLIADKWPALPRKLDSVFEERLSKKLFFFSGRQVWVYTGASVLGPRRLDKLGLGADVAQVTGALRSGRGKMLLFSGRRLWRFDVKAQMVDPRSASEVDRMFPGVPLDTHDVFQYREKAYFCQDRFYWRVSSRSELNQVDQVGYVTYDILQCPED

[6] = target: Receptor tyrosine-protein kinase erbB-2 (Homo sapiens, UniProt P04626); test: biochemical; format: cell-based, Insect cells
Sequence of Receptor tyrosine-protein kinase erbB-2 (P04626 whole entry): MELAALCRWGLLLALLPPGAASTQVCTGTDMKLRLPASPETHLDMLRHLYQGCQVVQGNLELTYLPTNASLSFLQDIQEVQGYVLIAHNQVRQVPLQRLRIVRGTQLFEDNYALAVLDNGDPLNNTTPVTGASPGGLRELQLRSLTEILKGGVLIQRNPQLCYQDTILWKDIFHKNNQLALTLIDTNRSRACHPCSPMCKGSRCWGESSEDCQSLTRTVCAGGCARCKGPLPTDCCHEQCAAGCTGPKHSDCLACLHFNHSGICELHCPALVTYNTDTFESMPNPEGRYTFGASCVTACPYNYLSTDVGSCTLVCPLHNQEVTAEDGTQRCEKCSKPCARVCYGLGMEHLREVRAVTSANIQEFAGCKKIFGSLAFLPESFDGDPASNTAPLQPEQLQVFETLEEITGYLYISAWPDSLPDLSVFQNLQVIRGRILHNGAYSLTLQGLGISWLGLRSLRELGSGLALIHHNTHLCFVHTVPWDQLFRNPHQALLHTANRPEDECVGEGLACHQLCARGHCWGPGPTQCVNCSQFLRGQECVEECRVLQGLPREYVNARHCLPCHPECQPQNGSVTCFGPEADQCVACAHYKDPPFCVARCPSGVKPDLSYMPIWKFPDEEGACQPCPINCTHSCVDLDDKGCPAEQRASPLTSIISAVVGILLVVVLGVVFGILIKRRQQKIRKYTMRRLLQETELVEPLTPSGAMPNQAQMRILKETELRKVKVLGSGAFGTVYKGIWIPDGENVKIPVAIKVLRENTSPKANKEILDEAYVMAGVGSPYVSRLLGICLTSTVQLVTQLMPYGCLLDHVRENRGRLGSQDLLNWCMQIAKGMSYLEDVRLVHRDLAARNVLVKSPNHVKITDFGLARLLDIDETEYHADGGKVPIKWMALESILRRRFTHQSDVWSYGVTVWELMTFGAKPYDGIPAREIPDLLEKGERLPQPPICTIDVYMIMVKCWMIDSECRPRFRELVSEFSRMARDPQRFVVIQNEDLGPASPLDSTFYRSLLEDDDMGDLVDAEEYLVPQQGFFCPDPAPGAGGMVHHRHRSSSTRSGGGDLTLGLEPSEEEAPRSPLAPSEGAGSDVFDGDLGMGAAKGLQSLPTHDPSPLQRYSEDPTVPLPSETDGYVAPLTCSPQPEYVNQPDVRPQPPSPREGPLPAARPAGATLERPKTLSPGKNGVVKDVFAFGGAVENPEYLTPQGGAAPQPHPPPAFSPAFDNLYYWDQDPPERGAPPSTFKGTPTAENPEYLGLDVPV

Cytochrome P450 2A6 = target: T4, Cytochrome P450 2A6 (Homo sapiens, UniProt P11509); details: bti-tn-5b1-4; also: in other assays of this panel Not Active means under 50% inhibition at 10 µM
T4 sequence (P11509 whole entry): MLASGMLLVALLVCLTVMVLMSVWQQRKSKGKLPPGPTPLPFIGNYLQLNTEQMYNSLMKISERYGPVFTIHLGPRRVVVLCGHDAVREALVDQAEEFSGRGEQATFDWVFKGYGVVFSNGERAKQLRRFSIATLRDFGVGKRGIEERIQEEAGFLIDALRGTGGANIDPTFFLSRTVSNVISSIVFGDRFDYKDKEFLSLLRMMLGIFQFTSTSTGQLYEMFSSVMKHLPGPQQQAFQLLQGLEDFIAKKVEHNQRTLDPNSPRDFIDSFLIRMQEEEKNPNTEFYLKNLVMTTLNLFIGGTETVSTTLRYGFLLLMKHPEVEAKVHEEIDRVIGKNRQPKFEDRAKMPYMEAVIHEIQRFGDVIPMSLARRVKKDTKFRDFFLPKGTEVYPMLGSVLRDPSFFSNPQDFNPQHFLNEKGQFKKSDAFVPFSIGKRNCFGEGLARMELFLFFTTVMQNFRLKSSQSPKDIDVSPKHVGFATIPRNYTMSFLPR

SMILES | IC50 ([1]; sf9) | IC50 [2] | IC50 [3] | Ki [3] | IC50 [4] | IC50 (Caspase-1) | IC50 [5] | IC50 ([6]; insect cells) | IC50 (Cytochrome P450 2A6) | Ki (Cytochrome P450 2A6) | IC50 ([1]; read-out: IC50) | Ki [1] | IC50 ([6]; read-out: IC50)
CC1(C)[C@@H](O[C@H]2O[C@H](C(=O)O)[C@@H](O)[C@H](O)[C@H]2O[C@@H]2O[C@H](C(=O)O)[C@@H](O)[C@H](O)[C@H]2O)CC[C@]2(C)[C@H]3C(=O)C=C4[C@@H]5C[C@@](C)(C(=O)O)CC[C@]5(C)CC[C@@]4(C)[C@]3(C)CC[C@@H]12 [GLYCYRRHIZIN] | Not Active | Not Active | Not Active | Not Active | Not Active | Not Active | Not Active | Not Active | Not Active | Not Active |  |  | 
CCCCCCCCCc1ccc(O)cc1 [4-NONYLPHENOL] |  | Not Active | Not Active | Not Active | Not Active | Not Active | Not Active | Not Active | Not Active | Not Active | 6.78 µM | 2.54 µM | 
CNC(=O)Oc1ccc2c(c1)[C@]1(C)CCN(C)[C@@H]1N2C [PHYSOSTIGMINE] | Not Active | Not Active | Not Active | Not Active | Not Active | Not Active | Not Active | Not Active | Not Active | Not Active |  |  | 
CCCC[C@@H](CC)COC(=O)c1ccccc1C(=O)OC[C@@H](CC)CCCC [BIS(2-ETHYLHEXYL)PHTHALATE] | Not Active | Not Active | Not Active | Not Active | Not Active | Not Active | Not Active | Not Active | Not Active | Not Active |  |  | 
O=C1OC2(c3ccc(O)cc3Oc3cc(O)ccc32)c2ccccc21 [FLUORESCEIN] | Not Active | Not Active | Not Active | Not Active | Not Active | Not Active | Not Active | Not Active | Not Active | Not Active |  |  | 
CC1COc2c(N3CCN(C)CC3)c(F)cc3c(=O)c(C(=O)O)cn1c23 (configuration not stated) [OFLOXACIN] | Not Active | Not Active | Not Active | Not Active | Not Active | Not Active | Not Active | Not Active | Not Active | Not Active |  |  | 
COc1ccc([C@@H]2Sc3ccccc3N(CCN(C)C)C(=O)[C@@H]2OC(C)=O)cc1 [DILTIAZEM] | Not Active | Not Active | Not Active | Not Active | Not Active | Not Active | Not Active | Not Active | Not Active | Not Active |  |  | 
CC(C)(S)[C@@H](N)C(=O)O [PENICILLAMINE] | Not Active | Not Active | Not Active | Not Active | Not Active | Not Active | Not Active | Not Active | Not Active | Not Active |  |  | 
Cc1ccccc1N1CCN(CCc2nnc3n2CCCC3)CC1 [DAPIPRAZOLE] | Not Active | Not Active | Not Active | Not Active | Not Active | Not Active | Not Active | Not Active | Not Active | Not Active |  |  | 
CC[C@H](C)[C@H](N)C1=N[C@H](C(=O)N[C@@H](CC(C)C)C(=O)N[C@H](CCC(=O)O)C(=O)N[C@H](C(=O)N[C@H]2CCCCNC(=O)[C@H](CC(N)=O)NC(=O)[C@@H](CC(=O)O)NC(=O)[C@H](Cc3cnc[nH]3)NC(=O)[C@@H](Cc3ccccc3)NC(=O)[C@H]([C@@H](C)CC)NC(=O)[C@@H](CCCN)NC2=O)[C@@H](C)CC)CS1 [BACITRACIN] ({Ileψ(thiazoline)Cys}-L[dE]IK[dOrn]I[dF]H[dD]N; lactam 4-C) | Not Active | Not Active | Not Active | Not Active | Not Active | Not Active | Not Active | Not Active | Not Active | Not Active |  |  | 
Oc1c(Cl)cc(Cl)cc1Sc1cc(Cl)cc(Cl)c1O [BITHIONOL] |  | Not Active | Not Active | Not Active | Not Active | Not Active | Not Active |  | Not Active | Not Active | 3.82 µM | 1.43 µM | 2.15 µM
